Here are results for three molecules from patent publication US20240191177A1, “GROWTH PROMOTER FOR LACTIC ACID COCCI” (KIRIN HOLDINGS KABUSHIKI KAISHA, priority 2002, published 2024).

Type in all cases: cell-based
Assay [1] has as its system Lactococcus lactis subsp. lactis JCM5805 strain. In words: Growth promoting effect, MRS medium, anaerobic cultivation (OD600). How it is done: A Lactococcus lactis subsp. lactis JCM5805 strain was used as the lactic acid coccus.
The bacteria were counted by measuring the OD600 (turbidity) of the medium using an absorbance meter (Biochrom GeneQuant 1300).
Measured values were expressed as mean±standard error. One-way analysis of variance was followed by Tukey's test, and cases where p<0.05 relative to the control group were evaluated as having a significant difference.

Assay [2] has the same test system. In words: Growth promoting effect, GM17 medium, aerobic cultivation (OD600). The note with it: 0.5 to 2% by mass, 30° C. 24 hours, FIG. 4. As for the experimental part: (§1) The lactic acid coccus described in Example 1, item (1), A was used.
The medium used was GM17 medium. […] Next, the bacterial cells were inoculated (seeded) so that the concentration of the bacterial cells was 0.1% (v/v) with respect to 10 ml of the prepared medium, and the medium inoculated with the bacterial cells was placed in an automatic cultivation searching device OT-201 (Oriental Instruments; sometimes referred to as “bioplotter” herein), and cultivated at 30° C. for 24 hours (stirring intensity condition: Medium).
(§2) Measurement was performed in a similar manner as described in Example 1, item (1), C.
(§3) Analysis was performed in a similar manner as described in Example 1, item (1), D.

In another assay the test system is Pediococcus damnosus. In words: Growth promoting effect on lactic acid cocci of the genus Pediococcus, MRS medium, anaerobic (Example 6). The settings on record: strain JCM5886, MRS medium, αKG 0.1 to 4 or 1 to 4% by mass, malic acid 0.1 to 2 or 1 to 2% by mass, FIG. 8. How it is done: (§4) The lactic acid cocci of the genus Pediococcus indicated in Table 5 were used as the bacterial cells.
(§5) Cultivation was performed in a similar manner as described in Example 1, item (1), B (i), except that α-ketoglutaric acid (concentrations shown in FIG. 8A (0.1 to 4% by mass) and FIG. 8C (1 to 4% by mass)) and malic acid (concentrations shown in FIG. 8B (0.1 to 2% by mass) and FIG. 8D (1 to 2% by mass)) were each added, as the dicarboxylic acids, to the medium (anaerobic cultivation).
as §2, §3

A further assay relates to Pediococcus acidilactici. The description is as above. The note with it: strain JCM8797, MRS medium, αKG 0.1 to 4 or 1 to 4% by mass, malic acid 0.1 to 2 or 1 to 2% by mass, FIG. 8. How it is done:
as §4, §5, §2, §3

Assay [3] has as its system Lactococcus lactis subsp. lactis JCM5805 strain. Description: Growth promoting effect, MRS medium, aerobic cultivation (OD600). The note with it: 0.5 to 2.0% by mass, 30° C. 24 hours, FIG. 2. As for the experimental part:
A Lactococcus lactis subsp. lactis JCM5805 strain was used as the lactic acid coccus. The medium used was MRS medium. […] Next, the bacterial cells were inoculated (seeded) so that the concentration of the bacterial cells was 0.1% (v/v) with respect to 10 ml of the medium, and the medium inoculated with the bacterial cells was placed in an automatic cultivation searching device OT-201 (Oriental Instruments: sometimes referred to as “bioplotter” herein), and cultivated at 30° ° C. for 24 hours (stirring intensity condition: Medium). The bacteria were counted by measuring the OD600 (turbidity) of the medium using an absorbance meter (Biochrom GeneQuant 1300). Measured values were expressed as mean±standard error. One-way analysis of variance was followed by Tukey's test, and cases where p<0.05 relative to the control group were evaluated as having a significant difference.

For assay [4] the test system is unchanged. In words: Growth promoting effect, GM17 medium, anaerobic cultivation (OD600). The settings on record: 0.5 to 2% by mass, 30° C. 24 hours, FIG. 3.
Excerpt: as §1
The medium used was a medium obtained by adding 20 g/L of glucose to M17 medium (Difco M17 Broth, BD; the composition thereof is indicated in Table 2; the same applies hereinafter in the present specification) (sometimes referred to as “GM17 medium” herein). […] Next, the bacterial cells were inoculated (seeded) in a 15-ml conical tube (FALCON) so that the concentration of the bacterial cells was 0.1% (v/v) with respect to 10 ml of the prepared medium, and cultivated at 30° ° C. for 24 hours in an incubator (TOKYO […] CO., LTD.) (static cultivation).
as §2, §3

Setting [5] is: 0.01 to 4.0% by mass, 30° C. 24 hours, FIG. 1A/1C.

With `O=C(O)CC(O)(CC(=O)O)C(=O)O` [citric acid, reference compound], in assay [1] (citric acid 0.25 to 1% by mass, FIG. 7), the “growth of the lactic acid coccus (OD600) as compared with the control” value is on record as “significantly promoted”.

Consider `O=C(O)CC(O)C(=O)O` (stereo not shown) [malic acid], for which the “growth of the lactic acid coccus (OD600) as compared with the control” value in assay [2] is recorded as “promoted in a concentration-dependent manner”; in assay [3], “significantly promoted in a concentration-dependent manner”; in assay [1] (setting [5]), “significantly promoted in a concentration-dependent manner”; in assay [4] it was “significantly promoted”. Further, the “growth of the lactic acid cocci belonging to the genus Pediococcus (OD600) as compared with the control” value in the assay on Pediococcus damnosus and in the assay on Pediococcus acidilactici was “significantly promoted in a concentration-dependent manner” throughout.

With `O=C(O)CCC(=O)C(=O)O` [αKG, α-ketoglutaric acid], the “growth of the lactic acid coccus (OD600) as compared with the control” value in assay [2] is given as “promoted in a concentration-dependent manner”; in assay [3] it was “significantly promoted in a concentration-dependent manner”; in assay [1] (setting [5]), “significantly promoted in a concentration-dependent manner”; in assay [4] it was “significantly promoted”. Further, the “growth of the lactic acid cocci belonging to the genus Pediococcus (OD600) as compared with the control” value with Pediococcus damnosus and with Pediococcus acidilactici was “significantly promoted in a concentration-dependent manner” throughout.
